Like-named read-outs stand apart in the source and are kept apart here. Blank lines part the entries; values can stand above or below the compound they belong to.
Assays:
[1] = 2 molar sulphuric acid, 100°C; reported; cited from earlier work
[2] = Hydrolysis/decomposition of nitriles in acidified solutions; type: physicochemical
[3] = Solubilities of salts in acidified [2% v/v H2SO4] acetonitrile-water mixtures at 25°C (Table 3); conditions: 2% v/v H2SO4, water
[4] = Oxidation of stirred cuprous sulphate solutions in acidified acetonitrile-water mixtures under oxygen (Table 2); type: physicochemical; conditions: 1.5% wt Cu^+, O2 1 atm
Excerpt: Effect of Nitrile and Acid Concentration.

[5] = acidified acetonitrile-water (10.8% ch3cn)
Experimental: Solubilities of salts in acidified [2% v/v H2 SO4 ] acetonitrile-water mixtures at 25°C.

[6] = Solubility of sulphur in refluxing acetonitrile-water-sulphuric acid; type: physicochemical; conditions: refluxing 50% acetonitrile, 45% water, 5% sulphuric acid
Experimental: c. Sulphur dissolved in refluxing 50% acetonitrile, 45% water, 5% sulphuric acid to the extent of about 0.05 gms/100 ml.

Compound: N#CCCO [2-hydroxycyanoethane]
rate of hydrolysis compared with acetonitrile [1]: comparable rate

Compound: CC#N [Acetonitrile, acetonitrile]
hydrolysed to acetic acid and ammonium acetate within ([2]; 2 molar sulphuric acid, sealed tube, 100°C): ≤ 24 h
loss of acetonitrile on heating ([2]; acetonitrile, water, cuprous sulphate and 1N sulphuric acid, sealed tubes, 50°C, 2 months): had not lost detectable amounts

Compound: O=S(=O)([O-])[O-].[Cd+2] [Cd SO4.8H2 O]
Solubility (MX) ([3]; 15% v/v CH3CN): 492 mg/mL

Compound: O=S(=O)([O-])[O-].[Cu+].[Cu+] [Cu2 SO4, cuprous sulphate]
Time for 30% of theoretical O2 uptake ([4]; 10% vol CH3CN, 5% vol H2SO4, 25°C): 95 min
Time for 30% of theoretical O2 uptake ([4]; 30% vol CH3CN, 2.5% vol H2SO4, 25°C): 330 min
Time for 30% of theoretical O2 uptake ([4]; 30% vol CH3CN, 5% vol H2SO4, 25°C): 300 min
Time for 30% of theoretical O2 uptake ([4]; 30% vol CH3CN, 10% vol H2SO4, 25°C): 375 min
Time for 30% of theoretical O2 uptake ([4]; 50% vol CH3CN, 5% vol H2SO4, 25°C): 340 min

Compound: O.O.O.O.O.O.O.O.O.O=S(=O)([O-])[O-].O=S(=O)([O-])[O-].O=S(=O)([O-])[O-].[Fe+3].[Fe+3] [Fe2 (SO4).9H2 O]
Solubility (MX) [5]: 325 mg/mL

Compound: O.O.O.O.O.O.O.O=S(=O)([O-])[O-].[Ni+2] [NiSO4.7H2 O]
Solubility (MX) ([3]; 16.6% v/v CH3CN): 231 mg/mL

Sulphur dissolved [6]: about 0.05 gms/100 ml
Compound: S1SSSSSSS1 [Sulphur, sulphur]

Compound: N#CCO [cyanohydrin of formaldehyde]
decomposition in the nitrile suitability tests ([2]; water and suitable acids, cuprous salts): decomposed rapidly

Reference: patent US3937657A, “Electrowinning of copper” (Anumin Pty. Limited, priority 1971, dated 1976)
